From ChEMBL document CHEMBL4680273, “Teixobactin: A Paving Stone toward a New Class of Antibiotics?” (2020) come the findings set out here.

Each structure is given as a SMILES string. In brackets after ≈: the same amount, converted by molar mass.

Common to all, as to assay type: functional
The subject of test [1] is Staphylococcus aureus. The experiment in a line: Antibacterial activity against methicillin resistant Staphylococcus aureus.
Test [2] concerns Staphylococcus aureus. The experiment in a line: Antibacterial activity against Staphylococcus aureus ATCC 29213 by CLSI-based broth microdilution method.
Test [3] deals with Staphylococcus aureus. The experiment in a line: Antibacterial activity against methicillin- resistant Staphylococcus aureus SA86.
The subject of test [4] is Staphylococcus aureus. The experiment in a line: Antibacterial activity against Staphylococcus aureus ATCC 29213.
Another test deals with Bacillus subtilis. The test can be described thus: Antibacterial activity against Bacillus subtilis ATCC 6051 incubated for 24 hrs by CLSI based broth microdilution method. (Dilution methods test growth across graded concentrations, often in twofold steps.)
Test [5] concerns Staphylococcus aureus. The test can be described thus: Antibacterial activity against Staphylococcus aureus ATCC 29213 incubated for 24 hrs by CLSI-based broth microdilution method.
The subject of test [6] is Staphylococcus aureus. The test can be described thus: Antibacterial activity against methicillin resistant Staphylococcus aureus USA300.
Test [7] deals with Staphylococcus epidermidis. The experiment in a line: Antibacterial activity against Staphylococcus epidermidis ATCC 14990 incubated for 16 hrs by UV/Visible absorbance method.
Test [8] relates to Staphylococcus aureus. The test can be described thus: Antibacterial activity against Staphylococcus aureus ATCC 29213 incubated for 16 hrs by UV/Visible absorbance method.
Test [9] concerns Staphylococcus aureus. The experiment in a line: Antibacterial activity against Staphylococcus aureus SH1000 incubated for 24 hrs by CLSI-broth microdilution method. To be noted: Staphylococcus aureus, SH1000, read-out: MIC.
The test system of the next test is Pseudomonas aeruginosa. The experiment in a line: Antibacterial activity against Pseudomonas aeruginosa PAO1 incubated for 24 hrs in presence of colistin by Checkerboard assay.
Test [10] concerns Staphylococcus aureus. The test can be described thus: Antibacterial activity against Staphylococcus aureus 25923 incubated for 24 hrs by CLSI based broth microdilution method.
Test [11] concerns Staphylococcus aureus. The test can be described thus: Antibacterial activity against Staphylococcus aureus.

Usually MIC stands for the smallest concentration in the dilution series that meets the test's criterion for growth inhibition. Turning to `CC[C@H](C)[C@H](NC(=O)[C@@H](Cc1ccccc1)NC)C(=O)N[C@@H](CO)C(=O)N[C@H](CC(N)=O)C(=O)N[C@@H](C(=O)N[C@H](C(=O)N[C@@H](C)C(=O)N[C@H]1C(=O)N[C@@H](C)C(=O)N[C@@H](CCCNC(=N)N)C(=O)N[C@@H]([C@@H](C)CC)C(=O)O[C@H]1C)[C@@H](C)CC)[C@@H](C)CC`, the MIC against Staphylococcus aureus [1] worked out at 0.5 µg/mL (≈ 0.412 µM); against Staphylococcus aureus [2], 2 µg/mL (≈ 1.65 µM). Consider `CC[C@H](C)[C@H](NC(=O)[C@H](NC(=O)[C@@H](CCC(N)=O)NC(=O)[C@H](CO)NC(=O)[C@H](CC(C)C)NC(=O)[C@@H](Cc1ccccc1)NC)[C@@H](C)CC)C(=O)N[C@@H](CO)C(=O)N[C@H]1C(=O)N[C@@H](C)C(=O)NC(CCCN)C(=O)N[C@@H]([C@@H](C)CC)C(=O)O[C@H]1C` (stereo partly specified), for which the minimum inhibitory concentration (MIC) in the test on Staphylococcus aureus [3] and against Staphylococcus aureus [4] was 4 µg/mL (≈ 3.33 µM) throughout. In the case of `CC[C@H](C)[C@H](NC(=O)[C@H](NC(=O)[C@@H](CCC(N)=O)NC(=O)[C@H](CO)NC(=O)[C@@H](NC(=O)[C@@H](Cc1ccccc1)NC)C(C)C)[C@@H](C)CC)C(=O)N[C@@H](CO)C(=O)N[C@H]1C(=O)N[C@@H](C)C(=O)NC(CCCN)C(=O)N[C@@H]([C@@H](C)CC)C(=O)O[C@H]1C` (stereo partly specified), the MIC against Staphylococcus aureus [3] and in the test with Staphylococcus aureus [4] was 8 µg/mL (≈ 6.73 µM) each time. `CC[C@H](C)[C@H](NC(=O)[C@@H](Cc1ccccc1)NC)C(=O)N[C@@H](CO)C(=O)N[C@H](CCC(N)=O)C(=O)N[C@@H](C(=O)N[C@H](C(=O)N[C@@H](CCCCO)C(=O)N[C@H]1C(=O)N[C@@H](C)C(=O)N[C@@H](CCCNC(=N)N)C(=O)N[C@@H]([C@@H](C)CC)C(=O)O[C@H]1C)[C@@H](C)CC)[C@@H](C)CC`: the minimum inhibitory concentration (MIC) amounted to 8 µg/mL (≈ 6.22 µM) in the test with Bacillus subtilis and 32 µg/mL (≈ 24.9 µM) in the test with Staphylococcus aureus [5].

Take `CC[C@H](C)[C@H](NC(=O)[C@@H](Cc1ccccc1)NC)C(=O)N[C@@H](CO)C(=O)N[C@H](CCCNC(=N)N)C(=O)N[C@@H](C(=O)N[C@H](C(=O)N[C@@H](C)C(=O)N[C@H]1C(=O)N[C@@H](C)C(=O)N[C@@H](CCCNC(=N)N)C(=O)N[C@@H]([C@@H](C)CC)C(=O)O[C@H]1C)[C@@H](C)CC)[C@@H](C)CC`: the MIC with Staphylococcus aureus [1] came out at 1 µg/mL (≈ 0.796 µM); in the test on Staphylococcus aureus [2], 2 µg/mL (≈ 1.59 µM). `CC[C@H](C)[C@H](NC(=O)[C@@H](Cc1ccccc1)NC)C(=O)N[C@@H](CO)C(=O)N[C@H](CCC(N)=O)C(=O)N[C@@H](C(=O)N[C@H](C(=O)N[C@@H](CO)C(=O)N[C@H]1C(=O)N[C@@H](C)C(=O)N[C@@H](CCC/N=C(\N)N(C)C)C(=O)N[C@@H]([C@@H](C)CC)C(=O)O[C@H]1C)[C@@H](C)CC)[C@@H](C)CC`: it took 4 µg/mL (≈ 3.14 µM) to inhibit growth in the test with Staphylococcus aureus [6] (MIC). As to `CC[C@H](C)[C@H](NC(=O)[C@@H](Cc1ccccc1)NC)C(=O)N[C@@H](CO)C(=O)N[C@H](CCCCN)C(=O)N[C@@H](C(=O)N[C@H](C(=O)N[C@@H](C)C(=O)N[C@H]1C(=O)N[C@@H](C)C(=O)N[C@@H](CCCNC(=N)N)C(=O)N[C@@H]([C@@H](C)CC)C(=O)O[C@H]1C)[C@@H](C)CC)[C@@H](C)CC`, the values for the MIC with Bacillus subtilis and with Staphylococcus aureus [5] were 1 µg/mL (≈ 0.814 µM) and 4 µg/mL (≈ 3.26 µM), respectively. `CC[C@H](C)[C@H](NC(=O)[C@@H](Cc1ccccc1)NC)C(=O)N[C@@H](CO)C(=O)N(C)[C@H](CCC(N)=O)C(=O)N[C@@H](C(=O)N[C@H](C(=O)N[C@@H](CO)C(=O)N[C@H]1C(=O)N[C@@H](C)C(=O)N[C@@H](CCCCN)C(=O)N[C@@H]([C@@H](C)CC)C(=O)O[C@H]1C)[C@@H](C)CC)[C@@H](C)CC`: the minimum inhibitory concentration (MIC) (in test [7]; in the test with Staphylococcus aureus [8]) was 16 µg/mL (≈ 13 µM) throughout.

Regarding `CCCCC1NC(=O)C(CCCC(F)(F)F)NC(=O)[C@H](C)NC(=O)[C@H](NC(=O)[C@H](CO)NC(=O)[C@@H](NC(=O)[C@H](NC(=O)[C@@H](CCC(N)=O)NC(=O)[C@H](CO)NC(=O)[C@@H](NC(=O)[C@@H](Cc2ccccc2)NC)[C@@H](C)CC)[C@@H](C)CC)[C@@H](C)CC)[C@H](C)OC1=O` (stereo partly specified), the minimal inhibitory concentration (MIC) in the test on Staphylococcus aureus [9] is 8 µg/mL (≈ 6.37 µM); in the test on Pseudomonas aeruginosa, 32 µg/mL.

For the compound `CC[C@H](C)[C@H](NC(=O)[C@@H](Cc1ccccc1)NC)C(=O)N[C@@H](CO)C(=O)N[C@H](CCC(N)=O)C(=O)N[C@@H](C(=O)N[C@H](C(=O)N[C@@H](CO)C(=O)N[C@H]1C(=O)N[C@@H](C)C(=O)N[C@@H](CCCNC(=N)N)C(=O)N[C@@H]([C@@H](C)CC)C(=O)O[C@H]1C)[C@@H](C)CC)[C@@H](C)CC`, the MIC in the test with Staphylococcus aureus [10] amounted to 1.6 µg/mL (≈ 1.29 µM); in the test with Bacillus subtilis it was 0.4 µg/mL (≈ 0.321 µM); in the test with Staphylococcus aureus [11], 2 µg/mL (≈ 1.61 µM). Consider `CC[C@H](C)[C@@H]1NC(=O)[C@H](CCCNC(=N)N)NC(=O)[C@H](C)NC(=O)[C@H](NC(=O)[C@H](CO)NC(=O)[C@@H](NC(=O)[C@H](NC(=O)[C@@H](CCC(N)=O)NC(=O)[C@H](CO)NC(=O)[C@@H](NC(=O)[C@@H](Cc2ccccc2)NC)[C@@H](C)CC)[C@@H](C)CC)[C@@H](C)CC)CNC1=O`, for which it took 1 µg/mL (≈ 0.813 µM) to inhibit growth in test [7] (MIC).
